{"source": "patent US10912731B2", "about": "“Biphasic oral care compositions” (Colgate-Palmolive Company, priority 2017, dated 2021)", "origin": "cited, not measured here", "conditions": "aqueous solution", "data": [{"smiles": "NCCCC[C@H](N)C(=O)O", "note": "[lysine]", "values": [{"measurement": "Isoelectric point", "value": 9.7, "unit": "pH"}]}]}
